The values that follow come from the supplement of paper PMC10307832.

Assay in all cases: relative viability (nuclei count vs DMSO), 5 days (fraction); higher = more cells survive
Compound in experiment [1]: CC1=CC=C(C=C1)C(=O)CN2C3=C(CCCC3)SC2=N [Pifithrin_alpha] + CS(=O)(=O)N1CCN(Cc2cc3nc(-c4cccc5[nH]ncc45)nc(N4CCOCC4)c3s2)CC1 [Pictilisib] (partner 1 µM)
In short, it runs like this:
(§1)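 Each reported value is a median over duplicate plates. It expresses relative viability: treated-well nuclei count divided by vehicle-well nuclei count. Lung cancer cell lines in 1536-well plates were dosed by pin tool a day after seeding, alone with one drug or with a fixed anchor-drug dose plus five library-drug doses (not always all listed) in √10 steps, and nuclei were counted after 5 days.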

Compound in the experiment “Bemcentinib + Trametinib”: Nc1nc(Nc2ccc3c(c2)CC[C@@H](N2CCCC2)CC3)nn1-c1cc2c(nn1)-c1ccccc1CCC2 [Bemcentinib] + CC(=O)Nc1cccc(-n2c(=O)n(C3CC3)c(=O)c3c(Nc4ccc(I)cc4F)n(C)c(=O)c(C)c32)c1 [Trametinib] (partner 0.02 µM)
In short, it runs like this:
as §1

Compound in experiment [2]: Nc1nc(Nc2ccc3c(c2)CC[C@@H](N2CCCC2)CC3)nn1-c1cc2c(nn1)-c1ccccc1CCC2 [Bemcentinib] + CC(=O)c1c(C)c2cnc(Nc3ccc(N4CCNCC4)cn3)nc2n(C2CCCC2)c1=O [Palbociclib] (partner 0.5 µM)
In short, it runs like this:
as §1

Compound in the experiment “Bemcentinib + AZD7762”: Nc1nc(Nc2ccc3c(c2)CC[C@@H](N2CCCC2)CC3)nn1-c1cc2c(nn1)-c1ccccc1CCC2 [Bemcentinib] + NC(=O)Nc1cc(-c2cccc(F)c2)sc1C(=O)N[C@H]1CCCNC1 [AZD7762] (partner 0.2 µM)
In short, it runs like this: as §1

Consider NCI-H322M, for which the relative viability in experiment [1] (first compound 1 µM) was 0.54; in experiment [1] (first compound 3.162 µM), 0.45; in experiment [1] (first compound 10 µM), 0.503; in experiment [1] (first compound 31.62 µM), 0.44; in experiment [1] (first compound 100 µM), 0.428; in the experiment with Bemcentinib + Trametinib (first compound 0.04 µM) it was 0.477. Moreover, the relative viability with Bemcentinib + Trametinib (first compound 0.1265 µM) was 0.534; in the experiment with Bemcentinib + Trametinib (first compound 0.4 µM) it was 0.496; in the experiment with Bemcentinib + Trametinib (first compound 1.265 µM), 0.504; with Bemcentinib + Trametinib (first compound 4 µM), 0.51; in experiment [2] (first compound 0.04 µM), 0.49; in experiment [2] (first compound 0.1265 µM), 0.481. Further, the relative viability turned out to be 0.483 in experiment [2] (first compound 0.4 µM); 0.537 in experiment [2] (first compound 1.265 µM); 0.557 in experiment [2] (first compound 4 µM); 0.545 with Bemcentinib + AZD7762 (first compound 0.04 µM); 0.564 with Bemcentinib + AZD7762 (first compound 0.1265 µM); 0.593 with Bemcentinib + AZD7762 (first compound 0.4 µM). Also, the relative viability with Bemcentinib + AZD7762 (first compound 1.265 µM) stood at 0.681; in the experiment with Bemcentinib + AZD7762 (first compound 4 µM), 0.617.

With NCI-H358, the relative viability in experiment [1] (first compound 1 µM) was 0.276; in experiment [1] (first compound 3.162 µM) it was 0.346; in experiment [1] (first compound 10 µM), 0.368; in experiment [1] (first compound 31.62 µM), 0.333; in experiment [1] (first compound 100 µM), 0.317; with Bemcentinib + Trametinib (first compound 0.04 µM) it was 0.12. The relative viability with Bemcentinib + Trametinib (first compound 0.1265 µM) amounted to 0.125; with Bemcentinib + Trametinib (first compound 0.4 µM), 0.118; with Bemcentinib + Trametinib (first compound 1.265 µM) it was 0.134; with Bemcentinib + Trametinib (first compound 4 µM), 0.145; in experiment [2] (first compound 0.04 µM) it was 0.135; in experiment [2] (first compound 0.1265 µM) it was 0.143. Further, the relative viability in experiment [2] (first compound 0.4 µM) turned out to be 0.143; in experiment [2] (first compound 1.265 µM), 0.137; in experiment [2] (first compound 4 µM), 0.135; with Bemcentinib + AZD7762 (first compound 0.04 µM), 0.527; with Bemcentinib + AZD7762 (first compound 0.1265 µM), 0.516; with Bemcentinib + AZD7762 (first compound 0.4 µM), 0.562. The relative viability was found to be 0.411 with Bemcentinib + AZD7762 (first compound 1.265 µM) and 0.602 with Bemcentinib + AZD7762 (first compound 4 µM).

As to NCI-H441, the relative viability in experiment [1] (first compound 1 µM) was determined as 0.552; in experiment [1] (first compound 3.162 µM), 0.582; in experiment [1] (first compound 10 µM), 0.624; in experiment [1] (first compound 31.62 µM) it was 0.436; in experiment [1] (first compound 100 µM) it was 0.438; in the experiment with Bemcentinib + Trametinib (first compound 0.04 µM), 0.294. Moreover, the relative viability worked out at 0.435 with Bemcentinib + Trametinib (first compound 0.1265 µM); 0.499 with Bemcentinib + Trametinib (first compound 0.4 µM); 0.347 with Bemcentinib + Trametinib (first compound 1.265 µM); 0.409 with Bemcentinib + Trametinib (first compound 4 µM); 0.197 in experiment [2] (first compound 0.04 µM); 0.202 in experiment [2] (first compound 0.1265 µM). In addition, the relative viability in experiment [2] (first compound 0.4 µM) was 0.227; in experiment [2] (first compound 1.265 µM) it was 0.195; in experiment [2] (first compound 4 µM), 0.223; with Bemcentinib + AZD7762 (first compound 0.04 µM), 1.33; with Bemcentinib + AZD7762 (first compound 0.1265 µM), 1.29; with Bemcentinib + AZD7762 (first compound 0.4 µM), 1.1. Further, the relative viability worked out at 1.41 with Bemcentinib + AZD7762 (first compound 1.265 µM) and 1.29 with Bemcentinib + AZD7762 (first compound 4 µM).

For the cell line NCI-H460, the relative viability in experiment [1] (first compound 1 µM) is 0.317; in experiment [1] (first compound 3.162 µM), 0.353; in experiment [1] (first compound 10 µM), 0.31; in experiment [1] (first compound 100 µM) it was 0.371; with Bemcentinib + Trametinib (first compound 0.04 µM), 0.137; in the experiment with Bemcentinib + Trametinib (first compound 0.1265 µM), 0.185. Further, the relative viability worked out at 0.147 with Bemcentinib + Trametinib (first compound 0.4 µM); 0.158 with Bemcentinib + Trametinib (first compound 1.265 µM); 0.259 with Bemcentinib + Trametinib (first compound 4 µM); 0.241 in experiment [2] (first compound 0.04 µM); 0.147 in experiment [2] (first compound 0.1265 µM); 0.221 in experiment [2] (first compound 0.4 µM). The relative viability was 0.301 in experiment [2] (first compound 1.265 µM); 0.199 in experiment [2] (first compound 4 µM); 0.678 with Bemcentinib + AZD7762 (first compound 0.04 µM); 0.694 with Bemcentinib + AZD7762 (first compound 0.1265 µM); 0.668 with Bemcentinib + AZD7762 (first compound 0.4 µM); 0.581 with Bemcentinib + AZD7762 (first compound 1.265 µM). Besides, the relative viability with Bemcentinib + AZD7762 (first compound 4 µM) amounted to 0.407.

NCI-H647: the relative viability in experiment [1] (first compound 3.162 µM) turned out to be 0.413; in experiment [1] (first compound 10 µM) it was 0.37; in experiment [1] (first compound 31.62 µM), 0.226; in experiment [1] (first compound 100 µM) it was 0.341; with Bemcentinib + Trametinib (first compound 0.04 µM) it was 0.493; with Bemcentinib + Trametinib (first compound 0.1265 µM) it was 0.545. For the same cell line, the relative viability with Bemcentinib + Trametinib (first compound 0.4 µM) amounted to 0.538; in the experiment with Bemcentinib + Trametinib (first compound 1.265 µM), 0.392; with Bemcentinib + Trametinib (first compound 4 µM), 0.634; in experiment [2] (first compound 0.04 µM), 0.43; in experiment [2] (first compound 0.1265 µM) it was 0.445; in experiment [2] (first compound 0.4 µM) it was 0.387. The relative viability was 0.315 in experiment [2] (first compound 1.265 µM); 0.462 in experiment [2] (first compound 4 µM); 0.346 with Bemcentinib + AZD7762 (first compound 0.04 µM); 0.539 in the experiment with Bemcentinib + AZD7762 (first compound 0.1265 µM); 0.498 in the experiment with Bemcentinib + AZD7762 (first compound 0.4 µM); 0.511 with Bemcentinib + AZD7762 (first compound 1.265 µM). For the same cell line, the relative viability with Bemcentinib + AZD7762 (first compound 4 µM) turned out to be 0.31.

As to NCI-H727, the relative viability in experiment [1] (first compound 1 µM) amounted to 0.347; in experiment [1] (first compound 3.162 µM), 0.466; in experiment [1] (first compound 10 µM) it was 0.369; in experiment [1] (first compound 31.62 µM), 0.316; in experiment [1] (first compound 100 µM) it was 0.227; in the experiment with Bemcentinib + Trametinib (first compound 0.04 µM) it was 0.39. Also, the relative viability turned out to be 0.381 with Bemcentinib + Trametinib (first compound 0.1265 µM); 0.385 in the experiment with Bemcentinib + Trametinib (first compound 0.4 µM); 0.424 with Bemcentinib + Trametinib (first compound 1.265 µM); 0.414 in the experiment with Bemcentinib + Trametinib (first compound 4 µM); 0.625 in experiment [2] (first compound 0.04 µM); 0.663 in experiment [2] (first compound 0.1265 µM). For the same cell line, the relative viability in experiment [2] (first compound 0.4 µM) was found to be 0.637; in experiment [2] (first compound 1.265 µM) it was 0.696; in experiment [2] (first compound 4 µM) it was 0.667; with Bemcentinib + AZD7762 (first compound 0.04 µM), 0.527; with Bemcentinib + AZD7762 (first compound 0.1265 µM) it was 0.575; with Bemcentinib + AZD7762 (first compound 0.4 µM), 0.483. Also, the relative viability with Bemcentinib + AZD7762 (first compound 1.265 µM) worked out at 0.495; with Bemcentinib + AZD7762 (first compound 4 µM), 0.569.

Consider NCI-H838, for which the relative viability in experiment [1] (first compound 1 µM) was 0.343; in experiment [1] (first compound 3.162 µM), 0.357; in experiment [1] (first compound 10 µM), 0.399; in experiment [1] (first compound 31.62 µM), 0.293; in experiment [1] (first compound 100 µM) it was 0.314; with Bemcentinib + Trametinib (first compound 0.04 µM), 0.501. The relative viability with Bemcentinib + Trametinib (first compound 0.1265 µM) came to 0.535; with Bemcentinib + Trametinib (first compound 0.4 µM), 0.533; with Bemcentinib + Trametinib (first compound 1.265 µM) it was 0.432; with Bemcentinib + Trametinib (first compound 4 µM) it was 0.534; in experiment [2] (first compound 0.04 µM) it was 0.226; in experiment [2] (first compound 0.1265 µM), 0.249. In addition, the relative viability amounted to 0.221 in experiment [2] (first compound 0.4 µM); 0.205 in experiment [2] (first compound 1.265 µM); 0.243 in experiment [2] (first compound 4 µM); 0.942 with Bemcentinib + AZD7762 (first compound 0.04 µM); 0.975 with Bemcentinib + AZD7762 (first compound 0.1265 µM); 1.02 with Bemcentinib + AZD7762 (first compound 0.4 µM). Further, the relative viability is 0.998 with Bemcentinib + AZD7762 (first compound 1.265 µM) and 0.917 with Bemcentinib + AZD7762 (first compound 4 µM).
